Read-outs that look alike come from different tables or passages of the source.
Key:
Mcl-1 protein = Mcl-1 protein (UniProtKB primary accession number: Q07820) (Homo sapiens, UniProt Q07820); experiment: Inhibition of Mcl-1 by fluorescence polarisation, Method 1; assay type: binding; details: fluorescence polarisation test; Method 2 values are underlined in the patent (underlining not visible here); read-out: IC50 (M) Mcl-1 FP
Outline: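 Fluorescence polarisation competition with an 11-point compound dilution series (final DMSO 5%). Mcl-1 protein at 5 nM and fluorescein-labelled ligand at 1 nM (final) in 10 mM HEPES, 150 mM NaCl, 0.05% Tween 20, pH 7.4.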

[1] = test system: H929 multiple myeloma tumour line; experiment: In vitro cytotoxicity, Microculture Tetrazolium Assay; assay type: cell-based; details: H929 cells, 48 hours exposure, MTT, read-out: IC50 (μM) MTT H929
Experimental: The cytotoxicity studies were carried out on the H929 multiple myeloma tumour line.
The cells are distributed onto microplates and exposed to the test compounds for 48 hours.

Mcl-1 protein, sequence (Q07820 whole entry): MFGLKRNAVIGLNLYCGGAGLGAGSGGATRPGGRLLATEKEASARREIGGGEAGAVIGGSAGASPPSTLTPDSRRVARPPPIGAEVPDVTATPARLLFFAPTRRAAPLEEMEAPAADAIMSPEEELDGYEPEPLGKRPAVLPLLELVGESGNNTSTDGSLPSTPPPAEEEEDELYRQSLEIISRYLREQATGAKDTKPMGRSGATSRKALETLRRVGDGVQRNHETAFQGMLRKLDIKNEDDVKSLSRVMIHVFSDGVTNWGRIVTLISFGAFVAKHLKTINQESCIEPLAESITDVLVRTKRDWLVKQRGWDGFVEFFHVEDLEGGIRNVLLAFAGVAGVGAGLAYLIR

SMILES	IC50 (Mcl-1 protein)	IC50 ([1]; Homo sapiens, NCI-H929, 48 h)	IC50 [1]
Cc1c(-c2c(-c3ccco3)sc3ncnc(OC(Cc4ccccc4OCc4nccc5ccccc45)C(=O)O)c23)ccc(OCCN2CCN(C)CC2)c1Cl [Example 284, (2R)-2-{[(5Sa)-5-{3-chloro-2-methyl-4-[2-(4-methylpiperazin-1-yl)ethoxy]phenyl}-6-(furan-2-yl)thieno[2,3-d]pyrimidin-4-yl]oxy}-3-[2-(isoquinolin-1-ylmethoxy)phenyl]propanoic acid]	4.8e-08 M	1.79 µM	–
Cc1c(-c2c(-c3ccco3)sc3ncnc(OC(Cc4ccccc4OCc4ncccc4Cl)C(=O)O)c23)ccc(OCCN2CCN(C)CC2)c1Cl [Example 285, (2R)-2-{[(5Sa)-5-{3-chloro-2-methyl-4-[2-(4-methylpiperazin-1-yl)ethoxy]phenyl}-6-(furan-2-yl)thieno[2,3-d]pyrimidin-4-yl]oxy}-3-{2-[(3-chloropyridin-2-yl)methoxy]phenyl}propanoic acid]	1.7e-08 M	0.588 µM	–
Cc1c(-c2c(-c3ccco3)sc3ncnc(OC(Cc4ccccc4OCc4ncccn4)C(=O)O)c23)ccc(OCCN2CCN(C)CC2)c1Cl [Example 286, (2R)-2-{[(5Sa)-5-{3-chloro-2-methyl-4-[2-(4-methylpiperazin-1-yl)ethoxy]phenyl}-6-(furan-2-yl)thieno[2,3-d]pyrimidin-4-yl]oxy}-3-[2-(pyrimidin-2-ylmethoxy)phenyl]propanoic acid]	7.6e-09 M	0.508 µM	–
Cc1c(-c2c(-c3ccco3)sc3ncnc(OC(Cc4ccccc4OCc4nccn4C)C(=O)O)c23)ccc(OCCN2CCN(C)CC2)c1Cl [Example 287, (2R)-2-{[(5Sa)-5-{3-chloro-2-methyl-4-[2-(4-methylpiperazin-1-yl)ethoxy]phenyl}-6-(furan-2-yl)thieno[2,3-d]pyrimidin-4-yl]oxy}-3-{2-[(1-methyl-1H-imidazol-2-yl)methoxy]phenyl}propanoic acid]	8.3e-09 M	0.667 µM	–
Cc1c(-c2c(-c3ccco3)sc3ncnc(OC(Cc4ccccc4OCCC(F)(F)F)C(=O)O)c23)ccc(OCCN2CCN(C)CC2)c1Cl [Example 288, (2R)-2-{[(5Sa)-5-{3-chloro-2-methyl-4-[2-(4-methylpiperazin-1-yl)ethoxy]phenyl}-6-(furan-2-yl)thieno[2,3-d]pyrimidin-4-yl]oxy}-3-[2-(3,3,3-trifluoropropoxy)phenyl]propanoic acid]	1.2e-08 M	0.086 µM	–
Cc1c(-c2c(-c3ccco3)sc3ncnc(OC(Cc4ccccc4OCCc4ccccn4)C(=O)O)c23)ccc(OCCN2CCN(C)CC2)c1Cl [Example 289, (2R)-2-{[(5Sa)-5-{3-chloro-2-methyl-4-[2-(4-methylpiperazin-1-yl)ethoxy]phenyl}-6-(furan-2-yl)thieno[2,3-d]pyrimidin-4-yl]oxy}-3-{2-[2-(pyridin-2-yl)ethoxy]phenyl}propanoic acid]	1.4e-08 M	0.18 µM	–
Cc1c(-c2c(-c3ccco3)sc3ncnc(OC(Cc4ccccc4OCCOc4ccccc4)C(=O)O)c23)ccc(OCCN2CCN(C)CC2)c1Cl [Example 291, (2R)-2-{[(5Sa)-5-{3-chloro-2-methyl-4-[2-(4-methylpiperazin-1-yl)ethoxy]phenyl}-6-(furan-2-yl)thieno[2,3-d]pyrimidin-4-yl]oxy}-3-[2-(2-phenoxyethoxy)phenyl]propanoic acid]	3.8e-08 M	1.3 µM	–
Cc1c(-c2c(-c3ccco3)sc3ncnc(OC(Cc4ccccc4OCCOCc4ccccc4)C(=O)O)c23)ccc(OCCN2CCN(C)CC2)c1Cl [Example 292, (2R)-3-{2-[2-(benzyloxy)ethoxy]phenyl}-2-{[(5Sa)-5-{3-chloro-2-methyl-4-[2-(4-methylpiperazin-1-yl)ethoxy]phenyl}-6-(furan-2-yl)thieno[2,3-d]pyrimidin-4-yl]oxy}propanoic acid]	9.3e-09 M	0.192 µM	–
Cc1c(-c2c(-c3ccco3)sc3ncnc(OC(Cc4ccccc4OCc4cn(Cc5ccccc5)nn4)C(=O)O)c23)ccc(OCCN2CCN(C)CC2)c1Cl [Example 294, (2R)-3-{2-[(1-benzyl-1H-1,2,3-triazol-4-yl)methoxy]phenyl}-2-{[(5Sa)-5-{3-chloro-2-methyl-4-[2-(4-methylpiperazin-1-yl)ethoxy]phenyl}-6-(furan-2-yl)thieno[2,3-d]pyrimidin-4-yl]oxy}propanoic acid]	1.6e-08 M	0.886 µM	–

More lines, main results first:

IC50 (Mcl-1 protein)	SMILES	IC50 ([1]; Homo sapiens, NCI-H929, 48 h)	IC50 [1]
4.7e-09 M	Cc1c(-c2c(-c3ccco3)sc3ncnc(OC(Cc4ccccc4OCc4cnnn4Cc4ccccc4)C(=O)O)c23)ccc(OCCN2CCN(C)CC2)c1Cl [Example 295, (2R)-3-{2-[(1-benzyl-1H-1,2,3-triazol-5-yl)methoxy]phenyl}-2-{[(5Sa)-5-{3-chloro-2-methyl-4-[2-(4-methylpiperazin-1-yl)ethoxy]phenyl}-6-(furan-2-yl)thieno[2,3-d]pyrimidin-4-yl]oxy}propanoic acid]	0.021 µM	–
1.2e-08 M	COc1ccccc1CC(Oc1ncnc2sc(-c3ccco3)c(-c3ccc(OCC4CCCN4C)c(Cl)c3C)c12)C(=O)O [Example 298, (2R)-2-{[(5Sa)-5-(3-chloro-2-methyl-4-{[(2S)-1-methylpyrrolidin-2-yl]methoxy}phenyl)-6-(furan-2-yl)thieno[2,3-d]pyrimidin-4-yl]oxy}-3-(2-methoxyphenyl)propanoic acid]	1.14 µM	–
1.6e-08 M	COc1ccccc1CC(Oc1ncnc2sc(-c3ccco3)c(-c3ccc(OCC4CCCN4C)c(Cl)c3C)c12)C(=O)O [Example 299, (2R)-2-{[(5Sa)-5-(3-chloro-2-methyl-4-{[(2R)-1-methylpyrrolidin-2-yl]methoxy}phenyl)-6-(furan-2-yl)thieno[2,3-d]pyrimidin-4-yl]oxy}-3-(2-methoxyphenyl)propanoic acid]	–	1.03 µM
9.3e-09 M	COc1ccccc1CC(Oc1ncnc2sc(-c3ccco3)c(-c3ccc(OC4CCN(C)C4)c(Cl)c3C)c12)C(=O)O [Example 303, (2R)-2-{[(5Sa)-5-{3-chloro-2-methyl-4-[(1-methylpyrrolidin-3-yl)oxy]phenyl}-6-(furan-2-yl)thieno[2,3-d]pyrimidin-4-yl]oxy}-3-(2-methoxyphenyl)propanoic acid]	0.998 µM	–
1.1e-08 M	COc1ccccc1CC(Oc1ncnc2sc(-c3ccco3)c(-c3ccc(OC4CCN(C)CC4)c(Cl)c3C)c12)C(=O)O [Example 304, (2R)-2-{[(5Sa)-5-{3-chloro-2-methyl-4-[(1-methylpiperidin-4-yl)oxy]phenyl}-6-(furan-2-yl)thieno[2,3-d]pyrimidin-4-yl]oxy}-3-(2-methoxyphenyl)propanoic acid]	1.7 µM	–
1.4e-08 M	COc1ccccc1CC(Oc1ncnc2sc(-c3ccco3)c(-c3ccc(OCC4CCN(C)C4)c(Cl)c3C)c12)C(=O)O [Example 310, (2R)-2-{[(5Sa)-5-{3-chloro-2-methyl-4-[(1-methylpyrrolidin-3-yl)methoxy]phenyl}-6-(furan-2-yl)thieno[2,3-d]pyrimidin-4-yl]oxy}-3-(2-methoxyphenyl)propanoic acid]	0.26 µM	–
1.5e-08 M	COc1ccccc1CC(Oc1ncnc2sc(-c3ccco3)c(-c3ccc(OCC4CCN(C)CC4)c(Cl)c3C)c12)C(=O)O [Example 311, (2R)-2-{[(5Sa)-5-{3-chloro-2-methyl-4-[(1-methylpiperidin-4-yl)methoxy]phenyl}-6-(furan-2-yl)thieno[2,3-d]pyrimidin-4-yl]oxy}-3-(2-methoxyphenyl)propanoic acid]	1.59 µM	–
8.9e-09 M	COCCN1CCC(COc2ccc(-c3c(-c4ccco4)sc4ncnc(OC(Cc5ccccc5OC)C(=O)O)c34)c(C)c2Cl)C1 [Example 312, (2R)-2-{[(5Sa)-5-(3-chloro-4-{[1-(2-methoxyethyl)pyrrolidin-3-yl]methoxy}-2-methylphenyl)-6-(furan-2-yl)thieno[2,3-d]pyrimidin-4-yl]oxy}-3-(2-methoxyphenyl)propanoic acid]	1 µM	–
1e-08 M	COc1ccccc1CC(Oc1ncnc2sc(-c3ccco3)c(-c3ccc(OCC4CN(C)CCN4C)c(Cl)c3C)c12)C(=O)O [Example 313, (2R)-2-{[(5Sa)-5-{3-chloro-4-[(1,4-dimethylpiperazin-2-yl)methoxy]-2-methylphenyl}-6-(furan-2-yl)thieno[2,3-d]pyrimidin-4-yl]oxy}-3-(2-methoxyphenyl)propanoic acid]	0.886 µM	–
6.9e-09 M	COc1ccccc1CC(Oc1ncnc2sc(-c3ccco3)c(-c3ccc(OCC4CN(C)CCO4)c(Cl)c3C)c12)C(=O)O [Example 314, (2R)-2-{[(5Sa)-5-{3-chloro-2-methyl-4-[(4-methylmorpholin-2-yl)methoxy]phenyl}-6-(furan-2-yl)thieno[2,3-d]pyrimidin-4-yl]oxy}-3-(2-methoxyphenyl)propanoic acid]	1.82 µM	–
7.7e-09 M	COc1ccccc1CC(Oc1ncnc2sc(-c3ccco3)c(-c3ccc(OCCC4CCCN4C)c(Cl)c3C)c12)C(=O)O [Example 316, (2R)-2-{[(5Sa)-5-{3-chloro-2-methyl-4-[2-(1-methylpyrrolidin-2-yl)ethoxy]phenyl}-6-(furan-2-yl)thieno[2,3-d]pyrimidin-4-yl]oxy}-3-(2-methoxyphenyl)propanoic acid]	1.46 µM	–
1.8e-08 M	COc1ccccc1CC(Oc1ncnc2sc(-c3ccco3)c(-c3ccc(OCCC4CCN(C)CC4)c(Cl)c3C)c12)C(=O)O [Example 317, (2R)-2-{[(5Sa)-5-{3-chloro-2-methyl-4-[2-(1-methylpiperidin-4-yl)ethoxy]phenyl}-6-(furan-2-yl)thieno[2,3-d]pyrimidin-4-yl]oxy}-3-(2-methoxyphenyl)propanoic acid]	0.852 µM	–
